Results published in patent US8124793B2, “Derivatives of ethylene methanedisulfonate as cancer chemotherapeutic agents” (priority 2007, dated 2012).

Columns and labels:
Type in all cases: cell-based
[1] = test system: SR; experiment: NCI screen, growth of human tumor cells: Leukemia SR; settings: for % Growth: SR
Experimental: (§1) In the NCI screening process, each compound was tested and described by a minimum of 60 data points. The test data include, but are not limited to the type of cancer, the molar concentration used in the screen, and the percent growth of the cancer. In some cases, NMR and elemental analysis were used for structural assignment.

[2] = test system: HCC-2998; experiment: NCI screen, growth of human tumor cells: HCC-2998 (listed under Non-Small Cell Lung)
Experimental: as §1

[3] = test system: SF-268; experiment: NCI screen, growth of human tumor cells: CNS Cancer SF-268; settings: SF-268 (CNS Cancer), 10^−4 molar
Experimental: as §1

[4] = test system: SF-539; experiment: NCI screen, growth of human tumor cells: CNS Cancer SF-539; settings: SF-539 (CNS Cancer), 10^−4 molar
Experimental: as §1

[5] = test system: 786-0; experiment: NCI screen, growth of human tumor cells: Renal Cancer 786-0; settings: 786-0 (Renal Cancer), 10^−4 molar
Experimental: as §1

[6] = test system: human cancer cells; experiment: NCI screen summary over the cancers tested (negative growth of human cancer cells); settings: 10^−4 M conc.; cancers with negative growth / cancers tested
Experimental: as §1
The derivatives in the tables are grouped using the same category as in the tables 1-6.

[7] = test system: HL-60 (TB); experiment: NCI screen, growth of human tumor cells: Leukemia HL-60 (TB); settings: HL-60 (TB) (Leukemia), 10^−4 molar
Experimental: as §1

[8] = test system: K562; experiment: NCI screen, growth of human tumor cells: Leukemia K562; settings: K562 (Leukemia), 10^−4 molar
Experimental: as §1

[9] = test system: MOLT-4; experiment: NCI screen, growth of human tumor cells: Leukemia MOLT-4
Experimental: as §1

[10] = test system: HOP-62; experiment: NCI screen, growth of human tumor cells: Non-Small Cell Lung HOP-62; settings: HOP-62, 10^−4 molar
Experimental: as §1

[11] = test system: COLO205; experiment: NCI screen, growth of human tumor cells: Colon Cancer COLO205; settings: COLO205 (Colon Cancer), 10^−4 molar
Experimental: as §1

[12] = test system: UO-31; experiment: NCI screen, growth of human tumor cells: Renal Cancer UO-31; settings: UO-31 (Renal Cancer), 10^−4 molar
Experimental: as §1

[13] = test system: HS 578T; experiment: NCI screen, growth of human tumor cells: Breast Cancer HS 578T; settings: HS 578T (Breast Cancer), 10^−4 molar
Experimental: as §1

[14] = test system: MDA-MB-435; experiment: NCI screen, growth of human tumor cells: Breast Cancer MDA-MB-435; settings: MDA-MB-435 (Breast Cancer), 10^−4 molar
Experimental: as §1

[15] = test system: CCRF-CEM; experiment: NCI screen, growth of human tumor cells: Leukemia CCRF-CEM; settings: CCRF-CEM (Leukemia), 10^−4 molar
Experimental: as §1

[16] = test system: NCI-H522; experiment: NCI screen, growth of human tumor cells: Non-Small Cell Lung NCI-H522; settings: NCI-H522 (Non-Small Cell Lung), 10^−4 molar
Experimental: as §1

[17] = test system: M14; experiment: NCI screen, growth of human tumor cells: Melanoma M14; settings: M14 (Melanoma), 10^−4 molar
Experimental: as §1

[18] = test system: DU-145; experiment: NCI screen, growth of human tumor cells: Prostate Cancer DU-145; settings: DU-145 (Prostate Cancer), 10^−4 molar
Experimental: as §1

[19] = test system: KD488; experiment: NCI screen, growth of human tumor cells: Lymphoma KD488
[20] = test system: MALME-3M; experiment: NCI screen, growth of human tumor cells: Melanoma MALME-3M; settings: MALME-3M, 10^−4 molar
Experimental: as §1

Question: How did the “percent of growth of human tumor cells” value ([1]; SR (Leukemia), 10^−4 molar) turn out when `CC1(C)OCC(COC(=O)C(=O)OC(C(=O)OCC2COC(C)(C)O2)=C2S(=O)(=O)OCCOS2(=O)=O)O1` (stereo not shown) [NSC 737275] was run?
Answer: 7%

Question: What about the “percent of growth of human tumor cells” value ([2]; HCC-2998 (under Non-Small Cell Lung), 10^−4 molar) of the same compound?
Answer: −12%

Question: And the “percent of growth of human tumor cells” value [3]?
Answer: 24%

Question: What about the “percent of growth of human tumor cells” value [4] of the same compound?
Answer: 15%

Question: What about the “percent of growth of human tumor cells” value [5] of the same compound?
Answer: 17%

Question: What about the “Percentage of cancers showing negative growth cancers tested” value [6] of the same compound?
Answer: 10^−4 M conc. = 1/5 = 20%

Question: Which “percent of growth of human tumor cells” value [7] does the source give for `CC1=C(CC2(C(=O)C(=O)OCC3COC(C)(C)O3)S(=O)(=O)OCCOS2(=O)=O)C(=O)c2ccccc2C1=O` (stereo not shown) [NSC 737277] here?
Answer: −33%

Question: What about the “percent of growth of human tumor cells” value [8] of the same compound?
Answer: 5%

Question: And the “percent of growth of human tumor cells” value ([9]; MOLT-4 (Leukemia), 10^−4 molar)?
Answer: −12%

Question: What about the “% Growth” value ([1]; 10^−4 molar) of the same compound?
Answer: −25%

Question: What about the “% Growth” value ([1]; 10^−5 molar) of the same compound?
Answer: 50%

Question: What about the “% Growth” value [10] of the same compound?
Answer: −84%

Question: And the “percent of growth of human tumor cells” value [11]?
Answer: −8%

Question: And the “percent of growth of human tumor cells” value [12]?
Answer: 22%

Question: And the “percent of growth of human tumor cells” value [13]?
Answer: 24%

Question: What about the “percent of growth of human tumor cells” value [14] of the same compound?
Answer: −11%

Question: And the “Percentage of cancers showing negative growth cancers tested” value [6]?
Answer: 10^−4 M conc. = 6/9 = 67%

Question: What does the source list for `CC1(C)OCC(COC(=O)C(=O)C2(C3=C(Cl)C(=O)c4ccccc4C3=O)S(=O)(=O)OCCOS2(=O)=O)O1` (stereo not shown) [NSC 737278]?
Answer: percent of growth of human tumor cells [15]: 22%; percent of growth of human tumor cells [7]: −25%; percent of growth of human tumor cells [8]: 12%; % Growth ([9]; MOLT-4, 10^−4 molar): −41%; % Growth ([9]; MOLT-4, 10^−5 molar): 53%; % Growth ([1]; 10^−4 molar): −37%; % Growth ([1]; 10^−5 molar): 20%; % Growth ([1]; 10^−6 molar): 33%; % Growth ([1]; 10^−7 molar): 56%; percent of growth of human tumor cells [16]: −30%; % Growth ([2]; HCC-2998, 10^−4 molar): −15%; % Growth ([2]; HCC-2998, 10^−5 molar): 41%; % Growth ([2]; HCC-2998, 10^−6 molar): 45%; % Growth ([2]; HCC-2998, 10^−7 molar): 64%; percent of growth of human tumor cells [11]: −9%; percent of growth of human tumor cells [17]: −4%; percent of growth of human tumor cells [12]: 4%; percent of growth of human tumor cells [18]: 6%; percent of growth of human tumor cells [14]: −45%; Percentage of cancers showing negative growth cancers tested [6]: 10^−4 M conc. = 8/12 = 67%

Question: `O=C(c1cccc2ccccc12)C1(Br)S(=O)(=O)OCCOS1(=O)=O` [compound 679048] was tested. Which “% Growth” value ([19]; KD488, 10^−4 molar) did it give?
Answer: 54%

Question: What about the “% Growth” value ([19]; KD488, 10^−5 molar) of the same compound?
Answer: 51%

Question: What about the “% Growth” value ([19]; KD488, 10^−6 molar) of the same compound?
Answer: 34%

Question: What about the “% Growth” value ([19]; KD488, 10^−7 molar) of the same compound?
Answer: 100%

Question: And the “% Growth” value ([19]; KD488, 10^−8 molar)?
Answer: 52%

Question: Which “% Growth” value [20] does the source give for `COC(=O)c1cc(/C=C/C(=O)Cc2ccccc2)cn1S(=O)(=O)c1ccccc1` [compound 679534] here?
Answer: −88%
